In patent publication US8053581B2, “Trisubstituted thiazole compounds, preparations methods, pharmaceutical compositions and medicals uses thereof” (Institute of Pharmacology and Toxicology Academy of …, priority 2006, dated 2011):

Tests used:
[1] = target: T1, PLTP (Homo sapiens, UniProt P55058); details: reported in WO 2002068450; read-out: Ki value to inhibit PLTP; cited from earlier work
T1 construct: 337 μl TSE and 3 μl plasma were mixed; from tissue

[2] = target: T2, CETP (Homo sapiens, UniProt P11597); details: reported in WO 2002068450; read-out: Ki value to inhibit CETP; cited from earlier work
T2 sequence (P11597 18-493): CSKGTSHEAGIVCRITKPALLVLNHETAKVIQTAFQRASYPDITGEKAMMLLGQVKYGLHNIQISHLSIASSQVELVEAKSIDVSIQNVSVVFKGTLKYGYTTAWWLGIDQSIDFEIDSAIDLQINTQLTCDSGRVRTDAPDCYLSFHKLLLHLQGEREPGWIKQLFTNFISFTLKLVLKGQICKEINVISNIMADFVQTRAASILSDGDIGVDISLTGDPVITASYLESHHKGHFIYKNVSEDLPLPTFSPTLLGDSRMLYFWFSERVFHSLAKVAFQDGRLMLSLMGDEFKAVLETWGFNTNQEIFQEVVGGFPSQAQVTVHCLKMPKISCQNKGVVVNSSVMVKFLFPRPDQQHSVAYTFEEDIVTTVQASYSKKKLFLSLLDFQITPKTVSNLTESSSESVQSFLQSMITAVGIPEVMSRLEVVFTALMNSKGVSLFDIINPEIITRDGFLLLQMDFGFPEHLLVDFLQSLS

[3] = target: T1, PLTP; experiment: Determination of PLTP inhibition activity (radiolabelled phospholipid liposome to HDL transfer with plasma); type: biochemical; details: for inhibition at 250 µM: Concentration of compounds 250 μM; for inhibition at 150 µM: Concentration of compounds 150 μM
Procedure: 30 μl (about 1000 cpm/μl) phospholipids liposome, 30 μl HDL ([…]), 337 μl TSE and 3 μl plasma were mixed, incubated in 37° C. water-bath for 1 hour, and then added 300 μl of a settling solution (50 ml solution preparation: 5.36 ml 5N NaCl, 9.075 ml 2M MnCl2 and 46 mg liver phospholipid were mixed, added water to 50 ml), the solution was stood at room temperature for 10 minutes, rotated at high speed for 10 minutes (to remove phospholipids liposome), 500 μl of the supernatant was sampled and counted. PLTP activity (cpm/h/3 μl)=sample cpm-background cpm.

[4] = target: T2, CETP; experiment: Determination of CETP inhibition activity (fluorescent donor/acceptor transfer); type: biochemical; details: for inhibition at 500 µM: Concentration of compounds 500 μM, read-out: CETP inhibition activity Inhibition rate(%)
Procedure: A mixture containing 3 μl of a donor, 9 μl of an acceptor (250 μg protein), 3 μl of CETP solution and 85 μl of an analytic buffer, 10 mM Tris, 0.15 M NaCl and 2 mM EDTA, pH 7.4 was incubated at 37° C. for 0.5 hours, the fluorescence intensity was determined on Victor 3 double illuminometer/fluorescence counter (Perkin Elmer) carrying […] light wave length.

[5] = read-out: PLTP inhibition activity Inhibition rate(%)

T1 sequence (P55058 18-493, species assumed): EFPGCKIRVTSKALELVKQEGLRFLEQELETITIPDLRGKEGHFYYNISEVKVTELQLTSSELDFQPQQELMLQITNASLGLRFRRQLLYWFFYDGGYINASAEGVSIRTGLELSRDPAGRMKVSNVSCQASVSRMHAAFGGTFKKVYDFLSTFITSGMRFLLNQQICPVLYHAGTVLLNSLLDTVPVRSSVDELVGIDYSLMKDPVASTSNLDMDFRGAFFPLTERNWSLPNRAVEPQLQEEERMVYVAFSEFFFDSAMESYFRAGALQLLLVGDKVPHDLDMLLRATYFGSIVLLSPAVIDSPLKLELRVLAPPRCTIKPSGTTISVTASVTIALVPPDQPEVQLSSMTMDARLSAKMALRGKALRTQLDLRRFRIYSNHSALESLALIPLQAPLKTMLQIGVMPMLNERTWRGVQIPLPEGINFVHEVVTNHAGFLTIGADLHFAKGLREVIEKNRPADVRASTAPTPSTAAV

| SMILES | Ki [1] | Ki [2] | melting point | IC50 [3] | inhibition at 250 µM [3, 5] | inhibition at 500 µM [4] | inhibition at 150 µM [3, 5] | inhibition at 500 µM ([3]; Concentration of compounds 500 μM, read-out: PLTP inhibition activity Inhibition rate(%)) | IC50 [4] |
| --- | --- | --- | --- | --- | --- | --- | --- | --- | --- |
| CC(C)(C)C(=O)Nc1ccccc1SSc1ccccc1NC(=O)C(C)(C)C [N-{2-[2-(2,2-dimethyl-propanamido)-phenyldithio]-phenyl}-2,2-dimethyl-propanamide] | 15 µM | 13 µM |  |  |  |  |  |  |  |
| O=C(Nc1nc(-c2ccc(O)cc2)c(Cc2ccccc2)s1)c1ccc(O)c(O)c1 [Example 19, N-[5-benzyl-4-(4-hydroxy-phenyl)-thiazol-2-yl]-3,4-dihydroxy-benzamide] |  |  | 240 to 241 °C | 70 µM | 79.8% | 19.4% |  |  |  |
| O=C(CCc1ccc(O)c(O)c1)Nc1nc(-c2ccc(O)cc2)c(Cc2ccccc2)s1 [Example 69, N-[5-benzyl-4-(4-hydroxy-phenyl)-thiazol-2-yl]-3-(3,4-dihydroxy-phenyl)-propanamide] |  |  | 94 to 95 °C | 75 µM |  | 25.3% | 75.7% |  |  |
| CCCCc1sc(N)nc1-c1ccc(OC)cc1 [Example 62, 4-(4-methoxy-phenyl)-5-n-butyl-thiazol-2-ylamine] |  |  | 118 to 119 °C |  | 15.3% | 65.4% |  |  |  |
| COc1ccc(-c2nc(N)sc2CC2CCCCC2)cc1 [Example 47, 5-cyclohexylmethyl-4-(4-methoxy-phenyl)-thiazol-2-ylamine] |  |  | 118 to 119 °C |  |  | 79.8% | 0% |  |  |
| COc1ccc(-c2nc(N3CCOCC3)sc2Cc2ccccc2)cc1 [Example 70, 4-[5-benzyl-4-(4-methoxy-phenyl)-thiazol-2-yl]-morpholine] |  |  | 88 to 89 °C |  |  | 91.6% |  | 61% | 75 µM |
| Cc1sc(NC(=O)c2cc(O)c(O)c(O)c2)nc1-c1ccc(O)cc1 [Example 55, 3,4,5-trihydroxy-N-[4-(4-hydroxy-phenyl)-5-methyl-thiazol-2-yl]-benzamide] |  |  | 262 to 263 °C |  | 10.7% | 85.9% |  |  |  |
